According to PMC7687371, “Quantitative in Vitro to in Vivo Extrapolation (QIVIVE) for Predicting Reduced Anogenital Distance Produced by Anti-Androgenic Pesticides in a Rodent Model for Male Reproductive Disorders” (Environmental Health Perspectives, 2020):
Read-outs that look alike come from different tables or passages of the source. Marks after values point to notes of the source that are not given here.

How the values were obtained:
NCI-H295R cells = assay: H295R steroidogenesis assay; assay type: cell-based, human; conditions: for Effect on androgen (steroid) synthesis, in words: H295R steroidogenesis assay; for IC50 / IC20: Homo sapiens, NCI-H295R; for IC50: 48 h, read-out: Testosterone inhibition (IC50, μM); for IC20: read-out: Testosterone inhibition (IC20 µM)
Procedure: To capture effects on steroid hormone synthesis (testosterone and androstendione), we tested all 12 pesticides in the H295R assay with the human adrenocortical carcinoma cell line NCI-H295R (American Type Culture Collection no. CRL-2,128, LGC Standards), as previously described ([Hecker et al. 2011]; [Rosenmai et al. 2013]). In brief, cells were cultured in DMEM/F-12 +glutamine medium with HEPES buffer (Invitrogen) containing 1% insulin-transferrin-sodium selenite plus Premix (VWR) and 2.5% Nu-Serum (BD Bioscience) at 37°C in a 5% CO2 atmosphere. The day before exposure, cells were seeded 300,000 per well in clear 24-well plates (VWR Corning). Cells were exposed for 48 h to control (Forskolin: 1μM , 10μM (Sigma-Aldrich); and Prochloraz: 0.3μM , 3μM (VWR-Bie and Berntsen) or test compounds. The vehicle (DMSO) concentration was kept constant in all wells (0.1%). After 48 h, the exposure culture medium was removed and stored at –80°C until the levels of 10 steroid hormones (testosterone, androstenedione, aldosterone, corticosterone, cortisol, dehydroepiandrosterone, 17α-hydroxyprogesterone , progesterone, estrone, and 17β-estradiol ) were quantified using the high-performance liquid chromatography–tandem mass spectrometry method described elsewhere ([Mortensen and Pedersen 2007]). Minor modifications were made to accommodate a smaller sample size and to include more hormones. The liquid chromatography system (Agilent 1100) was equipped with an Atlantis C18 column ( 2.1×150mm , 3μm ) (Waters Corp.) maintained at 40°C. The sample injection volume was 50μL . […] The mass spectrometer was a Quattro Ultima triple quadrupole instrument (Waters Corp.). […] Each pesticide was tested in 2-fold serial dilutions at concentrations between 0.8 and 50μM in three independent experiments, and hormone levels were normalized to the solvent controls containing 0.1% DMSO. Cell viability was evaluated by using the 3-(4,5-dimethylthiazol-2-yl)-2,5- diphenyltetrazolium bromide (MTT) assay (Sigma) as previously described ([Hecker et al. 2011]; [Rosenmai et al. 2013]). Fluorescence was measured (excitation 560 nm , emission 590 nm ) using a Wallac Victor2 1420 multilabel counter (PerkinElmer).

[1] = PBK model first-order kinetic parameters fitted to in vivo ADME data; design: species or system rat; conditions: for Metabolism rate in liver, Total (L/h) KMetab: metabolic clearance
[2] = Fetal chemical exposure analysis (LC-QTOF) at GD21; assay type: in vivo, rat; conditions: male, Wistar, rat, in vivo, 60 mg/kg/day
Procedure: Dams were decapitated under CO2 /oxygen anesthesia at GD21 and fetuses collected by cesarean section. Prior to decapitation of the fetuses, their BWs and AGDs were recorded. Blood from the dams was collected in heparinized vacutainer tubes, centrifuged at 125×g for 10 min at 4°C to prepare plasma, and, together with the amniotic fluid, frozen directly. Pooled trunk blood from all female and male fetuses of the same litter (female and male blood separately) was collected into heparin-treated capillary tubes approximately 90 min after dosing and the plasma was prepared and stored at −80°C until analysis for pesticides and selected metabolites by liquid chromatography quadrupole time-of-flight mass spectroscopy (LC-QTOF). Details about the LC-QTOF analyses are provided in “Method S1” in Supplemental Material. Amniotic fluid was collected from fetuses by pipetting, pooled within each litter, snap frozen in liquid nitrogen, and subsequently stored at −80 °C .
Method S1. Chemical analysis of pesticide levels
Acetonitrile, methanol, formic acid and 25% ammonium hydroxide, all of LC-MS grade and ethyl acetate were obtained from Sigma Aldrich, Schneldorf, Germany. Isolute bulk C-18 sorbent was obtained from Biotage, Sweden and was washed with acetonitrile and ethyl acetate and dried prior to use. Water was purified on a Milli Q system, Millipore Corporation, US.
Pesticide standards were purchased from Dr. Ehrenstorfer (Augsburg, Germany), LGC-standards (Teddington, Middlesex, UK) and Sigma Aldrich (St. Louis, MO, USA). Acetonitrile used as solvents for the LC-QTOF was LiChrosolv Hypergrade. An ESI-L low concentration tuning mix from Agilent (Santa Clara, CA, USA) was used for tuning of the TOF. A reference solution was prepared containing Purine and HP0921 from Agilent (Santa Clara, CA, USA).
Stock solutions of the pesticides were prepared at 1 mg/ml in acetonitrile, methanol or toluene.
Standard mixtures containing the test compounds were prepared at a concentration of 10 µg/ml acetonitrile and used for preparation of calibration solutions. Isomers eluting very close to each other were avoided in these mixtures. […]
added 200 µl of ice-cold acetonitrile in Eppendorf tubes. Internal standard was added in the form of 10 µl TPP (5 µg/ml) and the extraction was performed by whirl mixing. The tube was then stored on ice for 5 min and then centrifuged at 10,000 x g for 10 min at 4 °C (Ole Dich Instrument, Denmark). An aliquot of the supernatant was transferred to filter vials (0.45 µm) and analysed by […]
Quality control samples were included in each analytical run. These were prepared using the same procedure as for the samples, though using amniotic fluid from untreated control Wistar rats extracted with acetonitrile containing three different levels of the relevant pesticide standards. The resulting spike levels were 0.04, 0.013 and 0.13 µg/ml. […]
fluid or plasma from Sprague Dawley rats was transferred to an Eppendorf vial and added 150 µl of acetonitrile. 50 mg of isolute C-18 sorbent was added to the tube, which was shaken for 5 min, […]
cooled to 4 °C and centrifuged at 10,000 x g for 10 min at 4 °C (Ole Dich Instrument makers, Denmark). 20 µl of the supernatant was transferred to an HPLC vial and mixed with 80 µl of 5%- 75% acetonitrile (this percentage was analyte dependent) prior to analysis by LC-MS.LC -QTOF […]
Pesticide screening was carried out using a liquid chromatography-electrospray ionization-quadrupole-time of flight-mass spectrometer.
The LC system was connected to a Bruker Daltonics, maXis qTOF mass spectrometer equipped with an electrospray ion source operated in positive ion mode (Bruker Daltonics, Bremen, Germany). The ion source settings were: nebulizer pressure 2 bars, drying gas flow 8 l/min, dry gas temperature 200 °C, capillary voltage 2500 V. The scan range was from 80 to 700 m/z with an acquisition rate of 2 Hz. Sodium formate dissolved in 50% 2-propanol was introduced in the ion […]

Wistar rats [3] = conditions: rat, in vivo
[4] = design: method as in U.S. EPA 2012; conditions: EPI Suite, experimental preferred over modeled; ref U.S. EPA 2012; cited from earlier work
pregnant dams and pups = conditions: cited from earlier work; for Critical toxicity / NOAEL (mg/kg bw) / LOAEL (mg/kg bw): ref EFSA's Draft Assessment Reports (DARs)
Wistar rats [5] = assay: In vivo Study 3 (fludioxonil, cyprodinil, dimethomorph), reproductive/developmental toxicity, AGD
[6] = plasma; cited from earlier work

SMILES	Effect on androgen (steroid) synthesis, in words (NCI-H295R cells)	IC50 (NCI-H295R cells)	IC20 (NCI-H295R cells)	Androstendione, LOEC (NCI-H295R cells; multiple contrast tests)	Corticosterone, LOEC (NCI-H295R cells; multiple contrast tests)	Cortisol, LOEC (NCI-H295R cells; multiple contrast tests)	Estradiol, LOEC (NCI-H295R cells; multiple contrast tests)	Testosterone, lowest observed effect concentration (LOEC) (NCI-H295R cells; multiple contrast tests)	Fecal excretion rate from gut (L/h) KFeces ([1]; PBK model parameter)	Portal GI absorption rate into liver (L/h) KAS ([1]; PBK model parameter)	Urine excretion rate from kidney (L/h) KUrine ([1]; PBK model parameter)	Metabolism rate in liver, Total (L/h) KMetab ([1]; PBK model parameter)	log Kow [4]	Critical toxicity (pregnant dams and pups)	NOAEL (mg/kg bw) (pregnant dams and pups)	Unbound plasma fraction (%) [6]	LOAEL (mg/kg bw) (pregnant dams and pups)	other results
Cc1cc(C2CC2)nc(Nc2ccccc2)n1 [Cyprodinil, cyprodinil]	inhibited testosterone synthesis	8.5 µM	0.4 µM	6.3 µM	25 µM	25 µM	6.3 µM	6.3 µM	1 L/h	1 L/h	0.2 L/h	0.01 L/h	4.00	Reduced maternal and pup BW	71 mg/kg bw	–	–	Biliary excretion rate (L/h) KBiliary ([1]; PBK model parameter): 1.6 L/h; Measured concentration in male fetuses [2]: 6.6 µM; Shortening of AGDI compared with male controls (normalized AGDI scale) (Wistar rats [3]; male, Wistar (HanTac:WH)): around 10%; AGDI mean (Wistar rats [3]; male, Wistar, 20 mg/kg): 2.13; AGDI mean (Wistar rats [3]; male, Wistar, 60 mg/kg): 1.98; AGDI reduction (%) (Wistar rats [3]; male, Wistar, 60 mg/kg/day): 16%; AGDI mean (Wistar rats [3]; male, Wistar, 180 mg/kg): 2.09; Nipple retention at PD14, statistics in words (Wistar rats [3]): no statistically significant effects on nipple retention; Maternal liver toxicity (pregnant dams and pups; 180 mg/kg per day, ref EFSA 2005): induce maternal liver toxicity; % postnatal deaths (Wistar rats [5]; 20 mg/kg bw/day): 1.2 ± 3.7%; % postnatal deaths (Wistar rats [5]; 60 mg/kg bw/day): 0.0 ± 0.0%; % postnatal deaths (Wistar rats [5]; 180 mg/kg bw/day): 0.0 ± 0.0%
CC1(C(=O)Nc2ccc(O)c(Cl)c2Cl)CCCCC1 [Fenhexamide, fenhexamid]	inhibited testosterone synthesis	–	5.2 µM	12.5 µM	3.1 µM	3.1 µM	12.5 µM	6.3 µM	3 L/h	1 L/h	0.05 L/h	0.15 L/h	3.51	Reduced maternal body and organ weight	45 mg/kg bw	5.7^g %	450 mg/kg bw	DHEA, LOEC (NCI-H295R cells; multiple contrast tests): 12.5 µM; OH-Progesterone, LOEC (NCI-H295R cells; multiple contrast tests): 25 µM; Progesterone, LOEC (NCI-H295R cells; multiple contrast tests): 12.5 µM
Cc1cc(C)nc(Nc2ccccc2)n1 [Pyrimethanil, pyrimethanil]	no effect on any measured androgen	–	> 50 µM	–	–	–	–	–	0.1 L/h	1 L/h	0.01 L/h	0.8 L/h	2.84	Reduced maternal and pup BW	23 mg/kg bw	2.0^g %	294 mg/kg bw	–
NC(=O)Nc1ccc(Cl)c(Cl)c1 [DPU, 1-(3,4-Dichlorophenyl)urea]	–	5 µM	–	–	–	–	–	–	–	–	0.05 L/h	–	2.00	–	–	–	–	Metabolism rate in liver, Metabolite ([1]; conversion of parent compound into active metabolite): 0.25 L/h
